We go through nine compounds from ChEMBL document CHEMBL3616378 (J Med Chem, 2015).

The target in one experiment is T1, Metabotropic glutamate receptor 2 (Homo sapiens, UniProt Q14416). The experiment in a line: Agonist activity at human recombinant mGlu2 receptor expressed in AV12 cells assessed as inhibition of forskolin-stimulated cAMP production after 20 min by fluorescence assay.
T1 sequence (Q14416 whole entry): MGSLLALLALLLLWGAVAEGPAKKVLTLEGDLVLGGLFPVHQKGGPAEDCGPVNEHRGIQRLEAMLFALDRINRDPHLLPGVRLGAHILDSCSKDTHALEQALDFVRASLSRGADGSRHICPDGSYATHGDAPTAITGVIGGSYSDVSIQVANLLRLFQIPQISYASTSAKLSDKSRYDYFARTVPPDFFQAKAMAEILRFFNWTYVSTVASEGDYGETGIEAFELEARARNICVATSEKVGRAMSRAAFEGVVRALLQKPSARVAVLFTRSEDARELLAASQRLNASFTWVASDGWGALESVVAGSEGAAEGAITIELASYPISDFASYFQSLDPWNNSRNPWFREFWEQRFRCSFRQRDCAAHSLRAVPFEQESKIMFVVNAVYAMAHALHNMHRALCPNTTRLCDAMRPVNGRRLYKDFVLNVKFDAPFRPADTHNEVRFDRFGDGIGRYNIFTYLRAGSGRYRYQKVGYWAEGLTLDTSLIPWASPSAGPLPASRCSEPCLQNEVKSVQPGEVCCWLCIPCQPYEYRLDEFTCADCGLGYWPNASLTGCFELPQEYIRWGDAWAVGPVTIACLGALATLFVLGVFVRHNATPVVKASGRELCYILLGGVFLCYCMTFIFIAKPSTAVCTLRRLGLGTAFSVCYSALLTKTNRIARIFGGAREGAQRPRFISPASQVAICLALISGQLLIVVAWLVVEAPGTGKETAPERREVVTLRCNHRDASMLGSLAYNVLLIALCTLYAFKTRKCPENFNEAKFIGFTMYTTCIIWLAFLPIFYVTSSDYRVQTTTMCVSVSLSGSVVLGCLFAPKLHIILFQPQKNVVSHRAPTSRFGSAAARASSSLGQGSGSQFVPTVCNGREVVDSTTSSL
As to `Cc1nnc(S[C@@H]2C[C@@](N)(C(=O)O)[C@@H]3[C@@H](C(=O)O)[C@@H]32)[nH]1`, the EC50 (commonly the concentration giving half of the maximal effect) was determined as 10.4 nM.

For the compound `Nc1nnc(S[C@@H]2C[C@@](N)(C(=O)O)[C@@H]3[C@@H](C(=O)O)[C@@H]32)[nH]1`, the EC50 was 4.5 nM.

For `Cc1nnc(S[C@H]2C[C@@](N)(C(=O)O)[C@@H]3[C@@H](C(=O)O)[C@@H]32)[nH]1`, the EC50 was 44.3 nM.

Take `N[C@@]1(C(=O)O)C[C@H](Sc2nnc(C(F)F)[nH]2)[C@H]2[C@H](C(=O)O)[C@H]21`: the EC50 was 0.58 nM.

Regarding `Nc1nnc(S[C@H]2C[C@@](N)(C(=O)O)[C@@H]3[C@@H](C(=O)O)[C@@H]32)[nH]1`, the EC50 stood at 6.4 nM.

Consider `CC(C)c1nc(S[C@H]2C[C@@](N)(C(=O)O)[C@@H]3[C@@H](C(=O)O)[C@@H]32)n[nH]1`, for which the EC50 was 74 nM.

Take `N[C@@]1(C(=O)O)C[C@H](Sc2c[nH]nn2)[C@H]2[C@H](C(=O)O)[C@H]21`: the half-maximal effective concentration (EC50) was determined as 5.2 nM.

With `N[C@@]1(C(=O)O)CC[C@H]2[C@H](C(=O)O)[C@H]21`, the EC50 was determined as 7 nM.

The next experiment deals with T2, Metabotropic glutamate receptor 3 (Homo sapiens, UniProt Q14832). The experiment in a line: Agonist activity at human recombinant mGlu3 receptor expressed in AV12 cells assessed as stimulation of Ca2+ mobilization after 1.5 hrs by FLIPR assay. It is filed as functional, cell-based. A general note: A change in cytosolic calcium serves as a functional read-out for many receptors and channels.
T2 sequence (Q14832 whole entry): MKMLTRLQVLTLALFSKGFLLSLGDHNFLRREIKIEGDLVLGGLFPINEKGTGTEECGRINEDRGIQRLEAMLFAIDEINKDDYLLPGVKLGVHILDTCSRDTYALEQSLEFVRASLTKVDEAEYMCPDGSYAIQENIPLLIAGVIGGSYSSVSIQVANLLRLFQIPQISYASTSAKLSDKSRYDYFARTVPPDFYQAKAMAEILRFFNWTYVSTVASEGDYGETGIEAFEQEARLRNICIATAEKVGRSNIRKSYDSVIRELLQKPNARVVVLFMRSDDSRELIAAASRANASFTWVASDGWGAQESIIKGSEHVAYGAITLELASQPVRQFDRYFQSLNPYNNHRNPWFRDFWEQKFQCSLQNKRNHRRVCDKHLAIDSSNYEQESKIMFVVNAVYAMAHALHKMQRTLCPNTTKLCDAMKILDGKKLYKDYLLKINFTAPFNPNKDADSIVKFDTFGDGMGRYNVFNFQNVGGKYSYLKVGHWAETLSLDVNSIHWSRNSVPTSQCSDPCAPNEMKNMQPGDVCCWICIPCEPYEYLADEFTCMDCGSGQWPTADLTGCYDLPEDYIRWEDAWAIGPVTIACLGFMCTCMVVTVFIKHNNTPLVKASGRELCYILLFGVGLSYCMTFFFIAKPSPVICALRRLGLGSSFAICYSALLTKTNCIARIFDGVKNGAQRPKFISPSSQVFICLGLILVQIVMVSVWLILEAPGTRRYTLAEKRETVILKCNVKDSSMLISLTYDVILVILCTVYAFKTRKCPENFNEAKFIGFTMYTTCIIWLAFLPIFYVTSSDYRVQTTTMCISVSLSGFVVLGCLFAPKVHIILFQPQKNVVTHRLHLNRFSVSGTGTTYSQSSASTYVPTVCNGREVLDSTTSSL
With `Cc1nnc(S[C@@H]2C[C@@](N)(C(=O)O)[C@@H]3[C@@H](C(=O)O)[C@@H]32)[nH]1`, the EC50 amounted to 105 nM.

Take `Nc1nnc(S[C@@H]2C[C@@](N)(C(=O)O)[C@@H]3[C@@H](C(=O)O)[C@@H]32)[nH]1`: the EC50 is > 25000 nM.

Regarding `Cc1nnc(S[C@H]2C[C@@](N)(C(=O)O)[C@@H]3[C@@H](C(=O)O)[C@@H]32)[nH]1`, the EC50 was > 25000 nM.

For `N[C@@]1(C(=O)O)C[C@H](Sc2n[nH]c(C(F)(F)F)n2)[C@H]2[C@H](C(=O)O)[C@H]21`, the EC50 is > 25000 nM.

For `N[C@@]1(C(=O)O)C[C@H](Sc2nnc(C(F)F)[nH]2)[C@H]2[C@H](C(=O)O)[C@H]21`, the EC50 is > 25000 nM.

With `Nc1nnc(S[C@H]2C[C@@](N)(C(=O)O)[C@@H]3[C@@H](C(=O)O)[C@@H]32)[nH]1`, the EC50 is > 25000 nM.

In the case of `CC(C)c1nc(S[C@H]2C[C@@](N)(C(=O)O)[C@@H]3[C@@H](C(=O)O)[C@@H]32)n[nH]1`, the EC50 is > 25000 nM.

For the compound `N[C@@]1(C(=O)O)C[C@H](Sc2c[nH]nn2)[C@H]2[C@H](C(=O)O)[C@H]21`, the EC50 is > 25000 nM.

For `N[C@@]1(C(=O)O)CC[C@H]2[C@H](C(=O)O)[C@H]21`, the EC50 came to 140 nM.

The target in the next experiment is T1, Metabotropic glutamate receptor 2. The experiment in a line: Agonist activity at human recombinant mGlu2 receptor expressed in AV12 cells assessed as stimulation of Ca2+ mobilization after 1 hr by FLIPR assay. It is filed as functional, cell-based.
Consider `Cc1nnc(S[C@@H]2C[C@@](N)(C(=O)O)[C@@H]3[C@@H](C(=O)O)[C@@H]32)[nH]1`, for which the EC50 came out at 39.5 nM.

In the case of `Nc1nnc(S[C@@H]2C[C@@](N)(C(=O)O)[C@@H]3[C@@H](C(=O)O)[C@@H]32)[nH]1`, the EC50 amounted to 13 nM.

Regarding `Cc1nnc(S[C@H]2C[C@@](N)(C(=O)O)[C@@H]3[C@@H](C(=O)O)[C@@H]32)[nH]1`, the EC50 turned out to be 146 nM.

As to `N[C@@]1(C(=O)O)C[C@H](Sc2nnc(C(F)F)[nH]2)[C@H]2[C@H](C(=O)O)[C@H]21`, the EC50 was 6.3 nM.

In the case of `Nc1nnc(S[C@H]2C[C@@](N)(C(=O)O)[C@@H]3[C@@H](C(=O)O)[C@@H]32)[nH]1`, the EC50 was 20.1 nM.

On to `CC(C)c1nc(S[C@H]2C[C@@](N)(C(=O)O)[C@@H]3[C@@H](C(=O)O)[C@@H]32)n[nH]1`, for which the EC50 worked out at 242 nM.

Take `N[C@@]1(C(=O)O)C[C@H](Sc2c[nH]nn2)[C@H]2[C@H](C(=O)O)[C@H]21`: the EC50 was 19 nM.

As for `N[C@@]1(C(=O)O)CC[C@H]2[C@H](C(=O)O)[C@H]21`, the EC50 was determined as 34.4 nM.

Another experiment shares this target. The experiment is described as follows: Displacement of [3H]-459477 from human recombinant mGlu2 receptor expressed in AV12 cells after 90 mins by liquid scintillation counting. It is filed as cell-based. On the technique in general: Displacement assays read how much labelled ligand stays bound in the presence of the test substance.
Consider `Cc1nnc(S[C@@H]2C[C@@](N)(C(=O)O)[C@@H]3[C@@H](C(=O)O)[C@@H]32)[nH]1`, for which the Ki (usually the dissociation constant of the complex between target and ligand, obtained from inhibition or displacement) amounted to 121 nM.

On to `Nc1nnc(S[C@@H]2C[C@@](N)(C(=O)O)[C@@H]3[C@@H](C(=O)O)[C@@H]32)[nH]1`, for which the Ki is 67 nM.

Take `Cc1nnc(S[C@H]2C[C@@](N)(C(=O)O)[C@@H]3[C@@H](C(=O)O)[C@@H]32)[nH]1`: the Ki stood at 171 nM.

In the case of `N[C@@]1(C(=O)O)C[C@H](Sc2nnc(C(F)F)[nH]2)[C@H]2[C@H](C(=O)O)[C@H]21`, the Ki was determined as 13.4 nM.

With `Nc1nnc(S[C@H]2C[C@@](N)(C(=O)O)[C@@H]3[C@@H](C(=O)O)[C@@H]32)[nH]1`, the Ki amounted to 27.8 nM.

For `CC(C)c1nc(S[C@H]2C[C@@](N)(C(=O)O)[C@@H]3[C@@H](C(=O)O)[C@@H]32)n[nH]1`, the Ki was found to be 339 nM.

Regarding `N[C@@]1(C(=O)O)C[C@H](Sc2c[nH]nn2)[C@H]2[C@H](C(=O)O)[C@H]21`, the Ki was 111 nM.

Take `N[C@@]1(C(=O)O)CC[C@H]2[C@H](C(=O)O)[C@H]21`: the Ki came to 71.7 nM.

The next experiment deals with T2, Metabotropic glutamate receptor 3. The experiment in a line: Displacement of [3H]-459477 from human recombinant mGlu3 receptor expressed in AV12 cells after 90 mins by liquid scintillation counting. It is filed as cell-based.
On to `Cc1nnc(S[C@@H]2C[C@@](N)(C(=O)O)[C@@H]3[C@@H](C(=O)O)[C@@H]32)[nH]1`, for which the Ki amounted to 62.4 nM.

Consider `Nc1nnc(S[C@@H]2C[C@@](N)(C(=O)O)[C@@H]3[C@@H](C(=O)O)[C@@H]32)[nH]1`, for which the Ki was 58.3 nM.

With `Cc1nnc(S[C@H]2C[C@@](N)(C(=O)O)[C@@H]3[C@@H](C(=O)O)[C@@H]32)[nH]1`, the Ki amounted to 79 nM.

Take `N[C@@]1(C(=O)O)C[C@H](Sc2n[nH]c(C(F)(F)F)n2)[C@H]2[C@H](C(=O)O)[C@H]21`: the Ki was found to be 43.1 nM.

On to `N[C@@]1(C(=O)O)C[C@H](Sc2nnc(C(F)F)[nH]2)[C@H]2[C@H](C(=O)O)[C@H]21`, for which the Ki stood at 57.5 nM.

Turning to `Nc1nnc(S[C@H]2C[C@@](N)(C(=O)O)[C@@H]3[C@@H](C(=O)O)[C@@H]32)[nH]1`, the Ki turned out to be 69 nM.

Take `CC(C)c1nc(S[C@H]2C[C@@](N)(C(=O)O)[C@@H]3[C@@H](C(=O)O)[C@@H]32)n[nH]1`: the inhibitory constant (Ki) turned out to be 82.7 nM.

As to `N[C@@]1(C(=O)O)C[C@H](Sc2c[nH]nn2)[C@H]2[C@H](C(=O)O)[C@H]21`, the Ki was determined as 65.1 nM.

Turning to `N[C@@]1(C(=O)O)CC[C@H]2[C@H](C(=O)O)[C@H]21`, the Ki was determined as 107 nM.

The target is the same in the next experiment. The experiment is described as follows: Agonist activity at human recombinant mGlu3 receptor expressed in AV12 cells assessed as inhibition of forskolin-stimulated cAMP production after 1 hr by fluorescence assay. It is filed as functional, cell-based. For orientation: Changes in cAMP serve as a functional read-out for many G protein-coupled receptors.
As for `Cc1nnc(S[C@@H]2C[C@@](N)(C(=O)O)[C@@H]3[C@@H](C(=O)O)[C@@H]32)[nH]1`, the EC50 worked out at 103 nM.

In the case of `Nc1nnc(S[C@@H]2C[C@@](N)(C(=O)O)[C@@H]3[C@@H](C(=O)O)[C@@H]32)[nH]1`, the EC50 came out at 74 nM.

As to `Cc1nnc(S[C@H]2C[C@@](N)(C(=O)O)[C@@H]3[C@@H](C(=O)O)[C@@H]32)[nH]1`, the EC50 came to 96.6 nM.

As for `N[C@@]1(C(=O)O)C[C@H](Sc2n[nH]c(C(F)(F)F)n2)[C@H]2[C@H](C(=O)O)[C@H]21`, the EC50 was determined as 30.5 nM.

With `N[C@@]1(C(=O)O)C[C@H](Sc2nnc(C(F)F)[nH]2)[C@H]2[C@H](C(=O)O)[C@H]21`, the EC50 was 27.3 nM.

For `Nc1nnc(S[C@H]2C[C@@](N)(C(=O)O)[C@@H]3[C@@H](C(=O)O)[C@@H]32)[nH]1`, the EC50 is 112 nM.

As to `CC(C)c1nc(S[C@H]2C[C@@](N)(C(=O)O)[C@@H]3[C@@H](C(=O)O)[C@@H]32)n[nH]1`, the EC50 came out at 77.9 nM.

As to `N[C@@]1(C(=O)O)C[C@H](Sc2c[nH]nn2)[C@H]2[C@H](C(=O)O)[C@H]21`, the EC50 came to 92.7 nM.

Turning to `N[C@@]1(C(=O)O)CC[C@H]2[C@H](C(=O)O)[C@H]21`, the EC50 worked out at 27.9 nM.

The target is the same in a further experiment. The experiment in a line: Antagonist activity at human recombinant mGlu3 receptor expressed in AV12 cells assessed as inhibition of glutamate-stimulated Ca2+ mobilization after 1.5 hrs by FLIPR assay. It is filed as functional, cell-based.
Turning to `Nc1nnc(S[C@@H]2C[C@@](N)(C(=O)O)[C@@H]3[C@@H](C(=O)O)[C@@H]32)[nH]1`, the IC50 (usually the concentration at which inhibition is half-maximal) turned out to be 94.7 nM.

As to `Cc1nnc(S[C@H]2C[C@@](N)(C(=O)O)[C@@H]3[C@@H](C(=O)O)[C@@H]32)[nH]1`, the IC50 was 3590 nM.

`N[C@@]1(C(=O)O)C[C@H](Sc2n[nH]c(C(F)(F)F)n2)[C@H]2[C@H](C(=O)O)[C@H]21`: the concentration for half-maximal inhibition (IC50) was 624 nM.

Turning to `N[C@@]1(C(=O)O)C[C@H](Sc2nnc(C(F)F)[nH]2)[C@H]2[C@H](C(=O)O)[C@H]21`, the IC50 was 244 nM.

Take `Nc1nnc(S[C@H]2C[C@@](N)(C(=O)O)[C@@H]3[C@@H](C(=O)O)[C@@H]32)[nH]1`: the IC50 was 3870 nM.

As to `CC(C)c1nc(S[C@H]2C[C@@](N)(C(=O)O)[C@@H]3[C@@H](C(=O)O)[C@@H]32)n[nH]1`, the IC50 amounted to 2350 nM.

Take `N[C@@]1(C(=O)O)C[C@H](Sc2c[nH]nn2)[C@H]2[C@H](C(=O)O)[C@H]21`: the IC50 came to 2790 nM.
